Reference: ChEMBL document CHEMBL1201862, “PubChem BioAssay data set” (2004)
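These data come from cells grown in 96-well plates and exposed to compound for 48 hours at five concentrations. GI50 is the concentration that inhibits growth by half.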 The source made the active and inactive calls. Rule as the data show it: active = GI50 up to about 1.1 µM and inactive = higher.

What was measured:
Assay in all cases: growth of human tumour cells (NCI), 48 h
Malme-3M = test system: Malme-3M
SN12C = test system: SN12C
MDA-MB-435 = test system: MDA-MB-435
NCI-H460 = test system: NCI-H460
MDA-MB-231 = test system: MDA-MB-231
786-0 = test system: 786-0
RPMI-8226 = test system: RPMI-8226
SK-MEL-5 = test system: SK-MEL-5
HT-29 = test system: HT-29
M14 = test system: M14
NCI/ADR-RES = test system: NCI/ADR-RES
OVCAR-5 = test system: OVCAR-5
SNB-75 = test system: SNB-75
A498 = test system: A498
A549 = test system: A549
ACHN = test system: ACHN
SK-MEL-2 = test system: SK-MEL-2
UACC-257 = test system: UACC-257
SK-OV-3 = test system: SK-OV-3
DLD-1 = test system: DLD-1

Compound | GI50 (Malme-3M) | GI50 (SN12C) | GI50 (MDA-MB-435) | GI50 (NCI-H460) | GI50 (MDA-MB-231) | GI50 (786-0) | GI50 (RPMI-8226) | GI50 (SK-MEL-5) | GI50 (HT-29) | GI50 (M14) | GI50 (NCI/ADR-RES) | GI50 (OVCAR-5) | GI50 (SNB-75) | GI50 (A498) | GI50 (A549) | GI50 (ACHN) | GI50 (SK-MEL-2) | GI50 (UACC-257) | GI50 (SK-OV-3) | GI50 (DLD-1)
CN1CCc2c(sc3ncn(N)c(=N)c23)C1 | > 100 µM (inactive) | > 100 µM (inactive) | > 100 µM (inactive) | > 100 µM (inactive) | > 100 µM (inactive) | > 100 µM (inactive) | > 100 µM (inactive) | > 100 µM (inactive) | > 100 µM (inactive) | > 100 µM (inactive) | > 100 µM (inactive) | > 100 µM (inactive) | > 100 µM (inactive) | > 100 µM (inactive) | > 100 µM (inactive) | > 100 µM (inactive) | 61.2 µM (inactive) | > 100 µM (inactive) | > 100 µM (inactive) | –
CN(CCNC(=O)c1nn(-c2ccc(Cl)cc2Cl)c2c1Cc1ccccc1-2)CCNC(=O)c1nn(-c2ccc(Cl)cc2Cl)c2c1Cc1ccccc1-2 | 1.42 µM (inactive) | 3.79 µM (inactive) | 1.51 µM (inactive) | 1.75 µM (inactive) | 2.66 µM (inactive) | 2.16 µM (inactive) | 1.62 µM (inactive) | 1.74 µM (inactive) | 2.19 µM (inactive) | 1.81 µM (inactive) | 3.39 µM (inactive) | 20 µM (inactive) | 5.21 µM (inactive) | 5.14 µM (inactive) | 3.29 µM (inactive) | 4.53 µM (inactive) | 2.05 µM (inactive) | 2.12 µM (inactive) | 15.7 µM (inactive) | –
CC(=O)Oc1cccc2c(/C=N/NC(N)=S)ncc(C)c12 | 1.26 µM (inactive) | 0.863 µM (active) | 4.29 µM (inactive) | 0.966 µM (active) | 2.58 µM (inactive) | 0.322 µM (active) | 1.56 µM (inactive) | 1.38 µM (inactive) | 4.48 µM (inactive) | 0.753 µM (active) | 1.01 µM (active) | 7.35 µM (inactive) | 4.03 µM (inactive) | 7.55 µM (inactive) | 3.81 µM (inactive) | 0.445 µM (active) | 5.94 µM (inactive) | 5.51 µM (inactive) | 1.46 µM (inactive) | –
O=C1C=C(Cl)C(=O)C(c2ccc(Cl)cc2)=C1 | 20.3 µM (inactive) | 22.7 µM (inactive) | 17.9 µM (inactive) | 79.6 µM (inactive) | 17.1 µM (inactive) | 22.1 µM (inactive) | 12.1 µM (inactive) | 16.5 µM (inactive) | 23.7 µM (inactive) | 17 µM (inactive) | 26.4 µM (inactive) | 17 µM (inactive) | 22.5 µM (inactive) | 23.8 µM (inactive) | 46.6 µM (inactive) | 16.7 µM (inactive) | 18.6 µM (inactive) | 18.6 µM (inactive) | 47.3 µM (inactive) | –
CCOC(=O)/C1=C(\C)N(c2ccc(C)cc2)C(=O)c2ccccc2C(=O)c2c(OC(C)=O)ccc(OC(C)=O)c21 | 28.1 µM (inactive) | 20.4 µM (inactive) | 15.3 µM (inactive) | 18.3 µM (inactive) | 12.9 µM (inactive) | 34.8 µM (inactive) | 13.8 µM (inactive) | 30 µM (inactive) | 14.6 µM (inactive) | 18.4 µM (inactive) | 19.2 µM (inactive) | 21.9 µM (inactive) | 25.8 µM (inactive) | 67.1 µM (inactive) | 26.8 µM (inactive) | 16.8 µM (inactive) | 24 µM (inactive) | 21.8 µM (inactive) | 17.2 µM (inactive) | –
COc1ccc(C2CC(c3ccc4ccccc4c3O)=NN2)cc1OC (stereo unspecified) | 61.8 µM (inactive) | 48.6 µM (inactive) | 27 µM (inactive) | 34.6 µM (inactive) | 25.2 µM (inactive) | 37.8 µM (inactive) | 30.4 µM (inactive) | 58.5 µM (inactive) | 47.5 µM (inactive) | 66.2 µM (inactive) | 32.7 µM (inactive) | > 100 µM (inactive) | 56.4 µM (inactive) | 52.6 µM (inactive) | 38 µM (inactive) | 54.5 µM (inactive) | 52 µM (inactive) | 57.8 µM (inactive) | > 100 µM (inactive) | –
COc1ccc(/C=C/C(=O)c2c(-c3ccccc3)nn(C)c(=O)c2N2CCCCC2)cc1 | – | 20.8 µM (inactive) | – | 17.8 µM (inactive) | – | 14.2 µM (inactive) | 5.26 µM (inactive) | 12.8 µM (inactive) | 14.9 µM (inactive) | 20.7 µM (inactive) | – | – | – | – | 16.8 µM (inactive) | 40.1 µM (inactive) | – | – | 21.4 µM (inactive) | 16.1 µM (inactive)
COc1ccc(C(CC(=O)c2ccc3c(c2)OCO3)c2c(O)oc3ccccc3c2=O)cc1OC (stereo unspecified) | > 100 µM (inactive) | > 100 µM (inactive) | > 100 µM (inactive) | 44.7 µM (inactive) | > 100 µM (inactive) | > 100 µM (inactive) | 45.1 µM (inactive) | 47 µM (inactive) | 72.6 µM (inactive) | 1 µM (active) | > 100 µM (inactive) | > 100 µM (inactive) | > 100 µM (inactive) | > 100 µM (inactive) | 51.1 µM (inactive) | > 100 µM (inactive) | > 100 µM (inactive) | > 100 µM (inactive) | > 100 µM (inactive) | –
CC(C)=CCc1ccc2[nH]c3c(c2c1)C(=O)C(=O)C(C)=C3C(O)C(C)O (stereo unspecified) | 1.78 µM (inactive) | 8.55 µM (inactive) | 2.85 µM (inactive) | 14.1 µM (inactive) | 3.54 µM (inactive) | 1.87 µM (inactive) | 1.82 µM (inactive) | 2.45 µM (inactive) | 9.33 µM (inactive) | 1.91 µM (inactive) | 15.1 µM (inactive) | 18.4 µM (inactive) | 17.7 µM (inactive) | 12.5 µM (inactive) | 21.8 µM (inactive) | 4.27 µM (inactive) | 8.2 µM (inactive) | 2.06 µM (inactive) | 16.2 µM (inactive) | –
O=C1C2c3[nH]c4ccccc4c3[C@@H]3CCCCCCCCCCC3C2C(=O)N1c1ccccc1 (stereo partly specified) | – | 18.6 µM (inactive) | – | 17.3 µM (inactive) | – | 16.1 µM (inactive) | 38.6 µM (inactive) | 78 µM (inactive) | 27.6 µM (inactive) | 15.3 µM (inactive) | – | > 100 µM (inactive) | 3.18 µM (inactive) | – | 21.8 µM (inactive) | 25.9 µM (inactive) | – | – | 10.4 µM (inactive) | 24.5 µM (inactive)
CC1=NN(c2cccc(S(=O)(=O)O)c2)C2(C1)C(Cl)C(=O)N2c1nc2ccccc2s1 (stereo unspecified) | 5.83 µM (inactive) | 5.37 µM (inactive) | 6.85 µM (inactive) | 9.62 µM (inactive) | 8.73 µM (inactive) | 5.56 µM (inactive) | 1.83 µM (inactive) | 6.17 µM (inactive) | 7.98 µM (inactive) | 8.65 µM (inactive) | 4.99 µM (inactive) | 13.4 µM (inactive) | 4.05 µM (inactive) | 18.2 µM (inactive) | 8.61 µM (inactive) | 6.81 µM (inactive) | 4 µM (inactive) | 13.6 µM (inactive) | 11.2 µM (inactive) | –
S=C(NCCc1ccccn1)N/N=C(\c1ccccc1)c1ccccn1 | 0.0251 µM (active) | < 0.015 µM (active) | 5.86 µM (inactive) | 0.179 µM (active) | 0.0247 µM (active) | 1.47 µM (inactive) | 0.0634 µM (active) | 1.45 µM (inactive) | < 0.01 µM (active) | 0.0378 µM (active) | 0.0933 µM (active) | 7.82 µM (inactive) | 6.47 µM (inactive) | 0.211 µM (active) | 3.4 µM (inactive) | < 0.0344 µM (active) | 21.5 µM (inactive) | 0.113 µM (active) | 0.815 µM (active) | –
CSC1=C(C(=O)N(COCC[Si](C)(C)C)c2ccccc2Br)CCC(C(C)(C)C)C1 (stereo unspecified) | 16.6 µM (inactive) | 14.1 µM (inactive) | 17.9 µM (inactive) | 13.6 µM (inactive) | 10.3 µM (inactive) | 13.3 µM (inactive) | 10.6 µM (inactive) | 12.8 µM (inactive) | 15 µM (inactive) | 13.1 µM (inactive) | 13.7 µM (inactive) | 14.4 µM (inactive) | 20.6 µM (inactive) | 28.1 µM (inactive) | 17 µM (inactive) | 16.4 µM (inactive) | 14 µM (inactive) | 9.77 µM (inactive) | 31.9 µM (inactive) | –
O=C1C(=CNc2ccc([N+](=O)[O-])cc2)C(=O)N(c2ccccc2)C(=O)N1c1ccccc1 | > 100 µM (inactive) | > 100 µM (inactive) | > 100 µM (inactive) | > 100 µM (inactive) | > 100 µM (inactive) | > 100 µM (inactive) | 71.6 µM (inactive) | > 100 µM (inactive) | > 100 µM (inactive) | 73.1 µM (inactive) | > 100 µM (inactive) | > 100 µM (inactive) | 71.6 µM (inactive) | > 100 µM (inactive) | > 100 µM (inactive) | 64.7 µM (inactive) | 85.7 µM (inactive) | > 100 µM (inactive) | > 100 µM (inactive) | –
NC(=S)N/N=C/c1c[nH]c2ccccc12 | > 100 µM (inactive) | > 100 µM (inactive) | > 100 µM (inactive) | > 100 µM (inactive) | > 100 µM (inactive) | > 100 µM (inactive) | 79.6 µM (inactive) | > 100 µM (inactive) | > 100 µM (inactive) | > 100 µM (inactive) | > 100 µM (inactive) | > 100 µM (inactive) | 41.9 µM (inactive) | > 100 µM (inactive) | > 100 µM (inactive) | > 100 µM (inactive) | > 100 µM (inactive) | > 100 µM (inactive) | > 100 µM (inactive) | –
